Assay results published in ChEMBL document CHEMBL5214978, “Identification of 1,4-Benzodiazepine-2,5-dione Derivatives as Potential Protein Synthesis Inhibitors with Highly Potent Anticancer Activity” (J Med Chem, 2022).

How the values were obtained:
MCF7 = experiment: Anticancer activity against human MCF7 cells assessed as cell growth inhibition
MDA-MB-231 = experiment: Anticancer activity against human MDA-MB-231 cells assessed as cell growth inhibition
A498 = experiment: Anticancer activity against human A498 cells assessed as cell growth inhibition; assay type: functional, cell-based
[1] = biological target: T1, Nuclear receptor subfamily 6 group A member 1 (Homo sapiens, UniProt Q15406); experiment: Antagonist activity at GCNF (unknown origin) by luciferase reporter gene assay
T1 sequence (Q15406 whole entry): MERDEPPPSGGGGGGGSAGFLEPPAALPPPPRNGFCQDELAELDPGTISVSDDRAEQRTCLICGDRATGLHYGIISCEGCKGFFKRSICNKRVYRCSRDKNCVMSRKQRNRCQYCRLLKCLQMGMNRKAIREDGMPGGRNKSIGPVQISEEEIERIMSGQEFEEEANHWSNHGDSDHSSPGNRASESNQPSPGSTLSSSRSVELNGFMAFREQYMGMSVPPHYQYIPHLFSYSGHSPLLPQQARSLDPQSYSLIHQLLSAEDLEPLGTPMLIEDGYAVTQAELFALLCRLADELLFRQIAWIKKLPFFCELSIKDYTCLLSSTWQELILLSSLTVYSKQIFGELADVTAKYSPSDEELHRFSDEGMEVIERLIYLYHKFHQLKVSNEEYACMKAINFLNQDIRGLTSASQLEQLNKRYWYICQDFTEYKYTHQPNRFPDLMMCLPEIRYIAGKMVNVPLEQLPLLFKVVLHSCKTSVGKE

NCI-H661 = experiment: Anticancer activity against human NCI-H661 cells assessed as cell growth inhibition; assay type: functional, cell-based
A549 = experiment: Anticancer activity against human A549 cells assessed as cell growth inhibition measured after 48 hrs by SRB assay; assay type: functional
HCT-116 = experiment: Anticancer activity against human HCT-116 cells assessed as cell growth inhibition measured after 48 hrs by SRB assay; assay type: functional
SF-295 = experiment: Anticancer activity against human SF-295 cells assessed as cell growth inhibition measured after 48 hrs by SRB assay; assay type: functional
LOX IMVI = experiment: Anticancer activity against human LOX IMVI cells assessed as cell growth inhibition measured after 48 hrs by SRB assay; assay type: functional
786-0 = experiment: Anticancer activity against human 786-0 cells assessed as cell growth inhibition measured after 48 hrs by SRB assay; assay type: functional
[2] = tested on: Panel NCI-60 (60 carcinoma cell lines); experiment: Anticancer activity against human Panel NCI-60 (60 carcinoma cell lines) line assessed as cell growth inhibition measured after 48 hrs by SRB assay; assay type: functional
[3] = tested on: Panel NCI-60 (60 carcinoma cell lines); experiment: Anticancer activity against human Panel NCI-60 (60 carcinoma cell lines) cells assessed as cell growth inhibition; assay type: functional

| Compound | IC50 (MCF7) | IC50 (MDA-MB-231) | EC50 [1] | IC50 (NCI-H661) | GI50 (A549) | GI50 (HCT-116) | GI50 (786-0) | IC50 (A498) | GI50 (SF-295) | GI50 (LOX IMVI) | GI50 [2] | GI50 (A498) | GI50 [3] |
| --- | --- | --- | --- | --- | --- | --- | --- | --- | --- | --- | --- | --- | --- |
| C[C@H](c1ccc(Cl)cc1)N1C(=O)c2cc(I)ccc2N(CCCCC(=O)O)C(=O)[C@@H]1c1ccc(Cl)cc1 | 7000 nM | 67000 nM | – | – | – | – | – | – | – | – | – | – | – |
| O=C1Nc2ccc(Br)cc2C(=O)N(Cc2ccccc2Sc2ccc(Cl)cc2)[C@@H]1Cc1ccccc1 | – | – | < 7000 nM | – | – | – | – | 5000 nM | – | – | – | – | – |
| O=C(CCCCCN1C(=O)c2ccccc2N(Cc2ccccc2)C(=O)[C@@H]1Cc1ccccc1)NO | – | – | – | 6000 nM | – | – | – | – | – | – | – | – | – |
| CCc1nc(C[C@@H]2NC(=O)c3cc(Oc4cc(C)cc(C)c4)c(NC(=O)c4cc(OC)c(OC)c(OC)c4)cc3NC2=O)no1 | – | – | – | – | 270 nM | 330 nM | 660 nM | – | 120 nM | 240 nM | 360 nM | – | – |
| CCN(CC)C(=O)C[C@@H]1NC(=O)c2cc(Oc3cc(C)cc(C)c3)c(NC(=O)c3c(F)c(OC)c(OC)c(OC)c3Cl)cc2NC1=O | – | – | – | – | 15 nM | 17 nM | 61 nM | – | 40 nM | 7 nM | 23 nM | – | – |
| COC(=O)C[C@@H]1NC(=O)c2cc(Oc3cc(C)cc(C)c3)c(NC(=O)c3ccc(F)cc3)cc2NC1=O | – | – | – | – | > 50000 nM | > 50000 nM | > 50000 nM | – | > 50000 nM | > 50000 nM | > 50000 nM | – | – |
| CCN(CC)C(=O)C[C@H]1C(=O)Nc2cc(NC(=O)c3c(Cl)c(OC)c(OC)c(OC)c3Br)c(Oc3cc(C)cc(C)c3)cc2C(=O)N1C | – | – | – | – | 74 nM | 70 nM | 87 nM | – | 68 nM | 39 nM | 68 nM | – | – |
| O=C1Nc2ccccc2C(=O)N2C=C(c3ccc(Br)cc3)C[C@@H]12 | – | – | – | – | – | – | – | – | – | – | – | 510 nM | 7410 nM |
| CCN(CC)C(=O)C[C@@H]1NC(=O)c2cc(Oc3cc(C)cc(C)c3)c(NC(=O)c3cc(OC)c(OC)c(OC)c3Br)cc2NC1=O | – | – | – | – | < 5 nM | > 5 nM | 7 nM | – | < 5 nM | < 5 nM | < 5 nM | – | – |

Further lines, with some results ahead:

| IC50 (MCF7) | IC50 (MDA-MB-231) | EC50 [1] | IC50 (NCI-H661) | GI50 (A549) | GI50 (HCT-116) | GI50 (786-0) | Compound | IC50 (A498) | GI50 (SF-295) | GI50 (LOX IMVI) | GI50 [2] | GI50 (A498) | GI50 [3] |
| --- | --- | --- | --- | --- | --- | --- | --- | --- | --- | --- | --- | --- | --- |
| – | – | – | – | > 50000 nM | > 50000 nM | > 50000 nM | COC(=O)C[C@@H]1NC(=O)c2cc(OCc3ccccc3)c(NC(=O)c3cc(OC)c(OC)c(OC)c3)cc2NC1=O | – | > 50000 nM | > 50000 nM | > 50000 nM | – | – |
| – | – | – | – | > 50000 nM | > 50000 nM | > 50000 nM | COC(=O)C[C@@H]1NC(=O)c2cc(Oc3cc(C)cc(C)c3)c(NC(=O)c3ccc(OC)c(OC)c3OC)cc2NC1=O | – | > 50000 nM | > 50000 nM | > 50000 nM | – | – |
| – | – | – | – | 1810 nM | 2820 nM | 4780 nM | COC(=O)C[C@@H]1NC(=O)c2cc(OCc3cc(C)cc(C)c3)c(NC(=O)c3cc(OC)c(OC)c(OC)c3)cc2NC1=O | – | 1500 nM | 2990 nM | 3020 nM | – | – |
| – | – | – | – | > 50000 nM | > 50000 nM | > 50000 nM | COC(=O)C[C@@H]1NC(=O)c2cc(OCCN3CCOCC3)c(NC(=O)c3cc(OC)c(OC)c(OC)c3)cc2NC1=O | – | > 50000 nM | > 50000 nM | > 50000 nM | – | – |
| – | – | – | – | > 50000 nM | > 50000 nM | > 50000 nM | COC(=O)C[C@@H]1NC(=O)c2cc(Oc3cc(C)cc(C)c3)c(NCc3cc(OC)c(OC)c(OC)c3)cc2NC1=O | – | > 50000 nM | > 50000 nM | > 50000 nM | – | – |
| – | – | – | – | 1170 nM | 1340 nM | 1280 nM | COC(=O)C[C@@H]1NC(=O)c2cc(Oc3cc(C)ccc3C)c(NC(=O)c3cc(OC)c(OC)c(OC)c3)cc2NC1=O | – | 960 nM | 1360 nM | 1350 nM | – | – |
| – | – | – | – | 2090 nM | 4010 nM | 7450 nM | COC(=O)C[C@@H]1NC(=O)c2cc(OCCc3cc(C)cc(C)c3)c(NC(=O)c3cc(OC)c(OC)c(OC)c3)cc2NC1=O | – | 1610 nM | 5150 nM | 3020 nM | – | – |
| – | – | – | – | > 50000 nM | > 50000 nM | > 50000 nM | COC(=O)C[C@@H]1NC(=O)c2cc(OCCCc3cc(C)cc(C)c3)c(NC(=O)c3cc(OC)c(OC)c(OC)c3)cc2NC1=O | – | > 50000 nM | > 50000 nM | > 50000 nM | – | – |
